Reference: ChEMBL document CHEMBL2331468, “Antimalarial activities of 6-iodouridine and its prodrugs and potential for combination therapy” (J Med Chem, 2013)
pIC50: −log10 of the molar value. Active and inactive are the calls of the source. The calls are words filed in the database; no cut-off is given here.

Key:
Plasmodium falciparum [1] = experiment: Antimalarial activity against mature-stage Plasmodium falciparum assessed as decrease in viability at 4 uM incubated for 3 hrs followed by compound washout measured after 48 hrs by SYBR-Green staining-based fluorescence analysis relative to untreated control; format: functional, organism-based
CHO [2] = experiment: Cytotoxicity against CHO cells at 5 to 250 uM after 48 hrs by MTT assay in presence of uridine; format: cell-based, Cricetulus griseus; settings: chinese hamster
[3] = Selectivity index for Plasmodium falciparum over Plasmodium berghei in presence of uridine; format: functional
Mus musculus [4] = experiment: Toxicity against BALB/c mouse infected with Plasmodium berghei assessed as loss in body weight at 6 mg/dose, ip in presence of uridine; format: organism-based; settings: in vivo
Mus musculus [5] = experiment: Toxicity against BALB/c mouse infected with Plasmodium berghei assessed as loss in body weight at 12 mg/dose, ip in presence of uridine; format: organism-based; settings: in vivo
Mus musculus [6] = experiment: Toxicity against BALB/c mouse infected with Plasmodium berghei assessed as loss in body weight at 3 mg/dose, ip in presence of uridine; format: organism-based; settings: in vivo
Plasmodium berghei [7] = experiment: Antimalarial activity against Plasmodium berghei infected in BALB/c mouse assessed as reduction in parasitemia at 3 mg/dose, ip on days 5 to 7; format: functional, organism-based
Plasmodium berghei [8] = experiment: Antimalarial activity against Plasmodium berghei infected in BALB/c mouse assessed as reduction in parasitemia at 3 mg/dose, ip on days 5 to 7 in presence of uridine; format: functional, organism-based
Plasmodium berghei [9] = experiment: Antimalarial activity against Plasmodium berghei infected in BALB/c mouse assessed as reduction in parasitemia at 6 to 12 mg/dose, ip on days 5 to 7; format: functional, organism-based
Plasmodium berghei [10] = experiment: Antimalarial activity against Plasmodium berghei infected in BALB/c mouse assessed as reduction in parasitemia at 6 to 12 mg/dose, ip on days 5 to 7 in presence of uridine; format: functional, organism-based
Plasmodium chabaudi [11] = experiment: Antimalarial activity against Plasmodium chabaudi chabaudi infected in BALB/c mouse assessed as reduction in parasitemia at 6 mg/day administered as infusion on days 4 to 6 measured on days 10 to 13; format: functional, organism-based
Plasmodium chabaudi [12] = experiment: Antimalarial activity against Plasmodium chabaudi chabaudi infected in BALB/c mouse assessed as reduction in parasitemia at 6 mg/day administered as infusion on days 4 to 6 measured on days 10 to 13 in presence of uridine; format: functional, organism-based
Plasmodium berghei [13] = experiment: Antimalarial activity against Plasmodium berghei infected in mouse assessed as reduction of parasitemia at 50 ug/dose, ip on days 4 to 7; format: functional, organism-based
Plasmodium chabaudi [14] = experiment: Antimalarial activity against Plasmodium chabaudi chabaudi infected in mouse at 6 mg/day administered as infusion on days 4 to 6 relative to untreated control; format: functional, organism-based
Plasmodium falciparum [15] = experiment: Antimalarial activity against ring-stage Plasmodium falciparum assessed as decrease in viability at 4 uM incubated for 3 hrs followed by compound washout measured after 48 hrs by SYBR-Green staining-based fluorescence analysis relative to untreated control; format: functional, organism-based
[16] = Hemolytic activity against human erythrocytes at 250 uM; format: ADME, cell-based; settings: erythrocyte
C32 = experiment: Cytotoxicity against human C32 cells after 48 hrs by MTT assay in presence of uridine; format: cell-based; settings: c32, 48 h
Plasmodium falciparum [17] = experiment: Growth inhibition of Plasmodium falciparum at >250 uM after 72 hrs by lactate dehydrogenase assay in absence of uridine; format: functional, organism-based
[18] = Therapeutic index, ratio of IC50 for CHO cells to IC50 for Plasmodium falciparum in absence of uridine; format: cell-based; settings: hamster, CHO cells versus Plasmodium falciparum; read-out: Ratio IC50
Plasmodium falciparum [19] = experiment: Antimalarial activity against Plasmodium falciparum after 72 hrs by lactate dehydrogenase assay in absence of uridine; format: functional, organism-based
[20] = Therapeutic index, ratio of IC50 for CHO cells to IC50 for Plasmodium falciparum in presence of uridine; format: cell-based; settings: hamster, CHO cells versus Plasmodium falciparum; read-out: Ratio IC50
Plasmodium falciparum [21] = experiment: Antimalarial activity against Plasmodium falciparum after 72 hrs by lactate dehydrogenase assay in presence of uridine; format: functional, organism-based
CHO [22] = experiment: Cytotoxicity against CHO cells assessed as growth inhibition after 48 hrs by MTT assay in absence of uridine; format: cell-based; settings: Cricetulus griseus
Plasmodium chabaudi [23] = experiment: Antimalarial activity against Plasmodium chabaudi chabaudi infected in ip dosed BALB/C mouse; format: functional, organism-based
Plasmodium falciparum [24] = experiment: Antimalarial activity against Plasmodium falciparum FCR3 after 72 hrs by lactate dehydrogenase assay; format: functional; settings: FCR-3/Gambia
Plasmodium berghei [25] = experiment: Antimalarial activity against Plasmodium berghei infected in ip dosed BALB/C mouse; format: functional, organism-based
Plasmodium falciparum [26] = experiment: Antimalarial activity against chloroquine/multidrug-resistant Plasmodium falciparum SB after 72 hrs by lactate dehydrogenase assay; format: functional, organism-based
Plasmodium falciparum [27] = experiment: Antimalarial activity against chloroquine/multidrug-resistant Plasmodium falciparum MB after 72 hrs by lactate dehydrogenase assay; format: functional, organism-based
Plasmodium falciparum [28] = experiment: Antimalarial activity against chloroquine/mefloquine-resistant Plasmodium falciparum KC98358 after 72 hrs by lactate dehydrogenase assay; format: functional, organism-based; settings: KC98358, 72 h
Plasmodium falciparum [29] = experiment: Antimalarial activity against chloroquine/mefloquine-resistant Plasmodium falciparum KC98 after 72 hrs by lactate dehydrogenase assay; format: functional, organism-based; settings: KC98, 72 h
Plasmodium falciparum [30] = experiment: Antimalarial activity against chloroquine-resistant Plasmodium falciparum ItG after 72 hrs by lactate dehydrogenase assay; format: functional, organism-based
Plasmodium falciparum [31] = experiment: Antimalarial activity against Plasmodium falciparum 3D7 after 72 hrs by lactate dehydrogenase assay; format: functional, organism-based; settings: 3D7, 72 h
Plasmodium berghei [32] = experiment: Antimalarial activity against Plasmodium berghei infected in mouse assessed as reduction of parasitemia at 8 mg/dose, ip on days 4 to 7 relative to untreated control; format: functional, organism-based
Plasmodium chabaudi [33] = experiment: Antimalarial activity against Plasmodium chabaudi chabaudi infected in mouse assessed as reduction in parasitemia at 7.1 mg/day administered as infusion on days 4 to 6; format: functional, organism-based
Plasmodium chabaudi [34] = experiment: Antimalarial activity against Plasmodium chabaudi chabaudi infected in mouse assessed as reduction in parasitemia at 6.9 mg/day administered as infusion on days 4 to 6; format: functional, organism-based

**Q.** For `O=c1cc(I)n([C@@H]2O[C@H](CO)[C@@H](O)[C@H]2O)c(=O)[nH]1`, which Activity (Plasmodium falciparum [1]) is on record?
**A.** inactive

**Q.** What about the Activity (CHO [2]) of the same compound?
**A.** Toxic

**Q.** And the Selectivity Index [3]?
**A.** 2

**Q.** And the Activity (Mus musculus [4])?
**A.** Toxic

**Q.** And the Activity (Mus musculus [5])?
**A.** Toxic

**Q.** What about the Activity (Mus musculus [6]) of the same compound?
**A.** Non-toxic

**Q.** And the Activity (Plasmodium berghei [7])?
**A.** Active

**Q.** What about the Activity (Plasmodium berghei [8]) of the same compound?
**A.** Active

**Q.** What about the Activity (Plasmodium berghei [9]) of the same compound?
**A.** Active

**Q.** What about the Activity (Plasmodium berghei [10]) of the same compound?
**A.** Active

**Q.** What about the Activity (Plasmodium chabaudi [11]) of the same compound?
**A.** inactive

**Q.** And the Activity (Plasmodium chabaudi [12])?
**A.** Active

**Q.** What about the Activity (Plasmodium berghei [13]) of the same compound?
**A.** Active

**Q.** What about the Activity (Plasmodium chabaudi [14]) of the same compound?
**A.** inactive

**Q.** And the Activity (Plasmodium falciparum [15])?
**A.** Active

**Q.** What about the Activity [16] of the same compound?
**A.** Toxic

**Q.** And the Activity (C32)?
**A.** Non-toxic

**Q.** And the “growth inhibition (GI)” value (Plasmodium falciparum [17])?
**A.** Active

**Q.** And the selectivity ratio [18]?
**A.** 38

**Q.** What about the pIC50 (Plasmodium falciparum [19]) of the same compound?
**A.** 4.88

**Q.** What about the selectivity ratio [20] of the same compound?
**A.** 35

**Q.** And the pIC50 (Plasmodium falciparum [21])?
**A.** 4.95

**Q.** And the pIC50 (CHO [22])?
**A.** 3.31

**Q.** And the pIC50 (Plasmodium chabaudi [23])?
**A.** 3.52

**Q.** And the pIC50 (Plasmodium falciparum [24])?
**A.** 4.25

**Q.** What about the pIC50 (Plasmodium berghei [25]) of the same compound?
**A.** 3.52

**Q.** And the pIC50 (Plasmodium falciparum [26])?
**A.** 4.54

**Q.** What about the pIC50 (Plasmodium falciparum [27]) of the same compound?
**A.** 4.73

**Q.** What about the pIC50 (Plasmodium falciparum [28]) of the same compound?
**A.** 5.85

**Q.** And the pIC50 (Plasmodium falciparum [29])?
**A.** 5.64

**Q.** What about the pIC50 (Plasmodium falciparum [30]) of the same compound?
**A.** 5.92

**Q.** And the pIC50 (Plasmodium falciparum [31])?
**A.** 4.57

**Q.** With `C[n+]1cnn(CCCCCCCCCCCCn2c[n+](C)cn2)c1` as the compound, how does the Activity (Plasmodium berghei [25]) read?
**A.** Active

**Q.** Which Activity (Plasmodium berghei [32]) does the source give for `CC[C@H]1OC(=O)[C@H](C)[C@@H](O[C@H]2C[C@@](C)(OC)[C@@H](O)[C@H](C)O2)[C@H](C)[C@@H](O[C@@H]2O[C@H](C)C[C@H](N(C)C)[C@H]2O)[C@](C)(O)C[C@@H](C)CN(C)[C@H](C)[C@@H](O)[C@]1(C)O` here?
**A.** inactive

**Q.** Which Activity (Plasmodium chabaudi [33]) does the source give for `CCC(=O)OC[C@H]1O[C@@H](n2c(I)cc(=O)[nH]c2=O)[C@H](O)[C@@H]1O` here?
**A.** inactive

**Q.** And the pIC50 (Plasmodium falciparum [24])?
**A.** 4.07

**Q.** Which Activity (Plasmodium chabaudi [34]) does the source give for `CCCC(=O)OC[C@H]1O[C@@H](n2c(I)cc(=O)[nH]c2=O)[C@H](O)[C@@H]1O` here?
**A.** Active

**Q.** What about the pIC50 (Plasmodium falciparum [24]) of the same compound?
**A.** 3.78
